# Measured values reported in PubChem BioAssay (NCI).
#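 Five compound concentrations were applied to cells in 96-well plates for 48 hours; endpoints were derived by simple linear interpolation of the resulting dose-response curve. At the GI50, growth is halved. TGI: total growth inhibition.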 Where a SMILES comes first, the peptide text is derived from it. The star is where a group is joined. Boc = CC(C)(C)OC(=O)*; OBn = c1ccc(CO*)cc1
# Columns and labels:
# Experiment in all cases: inhibition of tumour cell growth, NCI panel, 48 h
# HCC-2998 colon = tested on: HCC-2998 colon
# LOX IMVI melanoma = tested on: LOX IMVI melanoma
# M14 melanoma = tested on: M14 melanoma
# MALME-3M melanoma = tested on: MALME-3M melanoma
# MOLT-4 leukemia = tested on: MOLT-4 leukemia
# NCI-H460 lung = tested on: NCI-H460 lung
# OVCAR-5 ovarian = tested on: OVCAR-5 ovarian
# OVCAR-8 ovarian = tested on: OVCAR-8 ovarian
# SF-539 CNS = tested on: SF-539 CNS
# SNB-75 CNS = tested on: SNB-75 CNS
# U251 CNS = tested on: U251 CNS
# EKVX NSCLC = tested on: EKVX NSCLC
# UACC-257 melanoma = tested on: UACC-257 melanoma
# BT-549 breast = tested on: BT-549 breast
Structure (SMILES),TGI (HCC-2998 colon) [µM],TGI (LOX IMVI melanoma) [µM],TGI (M14 melanoma) [µM],TGI (MALME-3M melanoma) [µM],TGI (MOLT-4 leukemia) [µM],TGI (NCI-H460 lung) [µM],TGI (OVCAR-5 ovarian) [µM],TGI (OVCAR-8 ovarian) [µM],TGI (SF-539 CNS) [µM],TGI (SNB-75 CNS) [µM],TGI (U251 CNS) [µM],TGI (EKVX NSCLC) [µM],TGI (UACC-257 melanoma) [µM],TGI (BT-549 breast) [µM],GI50 (BT-549 breast) [µM],GI50 (EKVX NSCLC) [µM],GI50 (LOX IMVI melanoma) [µM],GI50 (MOLT-4 leukemia) [µM],GI50 (OVCAR-5 ovarian) [µM],GI50 (SF-539 CNS) [µM]
COc1ccc(-c2nc3c(nc2-c2ccc(OC)cc2)N(C)S(=O)(=O)N=C3N)cc1,> 100,29.9,> 100,58.8,48.5,> 100,94.6,> 100,51.5,> 100,> 100,,,,,,,,,
Brc1ccc(-c2cc(-c3ccc4c(c3)OCO4)c(-c3cccs3)n2Cc2ccccc2)cc1,> 100,,> 100,,> 100,> 100,,> 100,> 100,> 100,> 100,> 100,> 100,,,,,,,
C[N+](C)(C)C(C1=CCCC1=O)c1ccccc1 (configuration not stated),,38.3,> 100,41,58.3,89.8,> 100,65.6,> 100,> 100,42.7,> 100,64.4,95.5,,,,,,
O=S(=O)(O)c1ccccc1N=Nc1ccc(N=Nc2c(O)ccc3ccccc23)c(S(=O)(=O)O)c1,,,> 100,> 100,> 100,,> 100,> 100,,> 100,> 100,> 100,> 100,> 100,,,,,,
CCc1c(C)c2ccc(OCC(=O)N=Nc3c(O)[nH]c4ccccc34)c(C)c2oc1=O,,> 7.31,,,> 33.3,,> 33.3,,> 33.3,,,> 33.3,,2.1,0.817,> 33.3,0.832,1.15,> 33.3,> 33.3
CCCCc1c2c(nc3c1CC/C(=C\c1ccc([N+](=O)[O-])cc1)C3=O)CCCC2,3.17,3.05,3.34,3.84,7.72,2.92,,3.47,3.2,20.6,2.96,23.7,4.6,,,,,,,
CC#CCCCC1(C)CCCNC1=S (configuration not stated),,> 10,> 10,> 10,> 10,> 10,> 10,> 10,> 10,> 10,> 10,> 10,> 10,> 10,,,,,,
Cc1ccc(C)c(COCCOCn2c(=O)[nH]c(=O)c3cc(Br)ccc32)c1,> 100,> 100,> 100,> 100,> 100,> 100,> 100,> 100,> 100,> 100,> 100,> 100,> 100,,,,,,,
COC(=O)C1=COc2c(n(C)c3ccccc23)-c2ccccc21,,> 100,> 100,> 100,> 100,> 100,> 100,> 100,> 100,> 100,> 100,> 100,> 100,> 100,,,,,,
NC(=O)CNC(=O)[C@@H]1C[C@@H](OCCC(=O)O)CN1C(=O)OCc1ccccc1,,> 100,> 100,> 100,> 100,> 100,> 100,,,> 100,> 100,> 100,> 100,> 100,,,,,,
CN(C)Cc1cc(C(=O)/C=C/c2ccc(F)cc2)cc(CN(C)C)c1O,,20.7,27.4,36.5,53.8,22.3,> 100,83.9,44.4,87.2,> 100,> 100,31,,,,,,,
COc1ccc(N(C(=O)NCCO)c2ccccc2)cc1,> 100,> 100,> 100,> 100,> 100,> 100,> 100,> 100,> 100,> 100,> 100,> 100,> 100,,,,,,,
Cc1[nH]c(=O)nc(N(CCO)/N=C/c2ccc(Cl)cc2)c1C(=O)Nc1ccc(Cl)cc1,> 100,> 100,> 100,68.3,> 100,> 100,> 100,> 100,> 100,> 100,69.2,> 100,> 100,,,,,,,
CC(=O)N(C(C)=O)n1nc2c(n1)C(=O)c1ccccc1C2=O,,> 100,> 100,> 100,> 100,> 100,> 100,> 100,> 100,,> 100,> 100,> 100,> 100,,,,,,
S=C(c1c[nH]c2ccccc12)N1CCCCC1,,> 100,> 100,> 100,> 100,> 100,> 100,> 100,> 100,,> 100,> 100,> 100,> 100,,,,,,
N#CCCN(CCC#N)c1ccc(C(N=Nc2ccc(Cl)cc2)=Nc2ccc(Cl)cc2)cc1,27.1,,58.7,,87.8,29.2,43.8,31.4,38.6,45.6,33.2,85.3,29.7,36.3,,,,,,
Cc1ccc(S(=O)(=O)N2CCCSCCN(S(=O)(=O)c3ccc(C)cc3)CCCSCC2)cc1,> 100,,> 100,,> 100,> 100,> 100,> 100,> 100,> 100,> 100,> 100,> 100,> 100,,,,,,
O=C1CCCC2=C1CC1=C(CCCC1=O)N2c1cccc([N+](=O)[O-])c1,> 100,> 100,> 100,,> 100,> 100,> 100,> 100,> 100,> 100,> 100,> 100,,> 100,,,,,,

Structure (SMILES),TGI (HCC-2998 colon) [µM],TGI (LOX IMVI melanoma) [µM],TGI (M14 melanoma) [µM],TGI (MALME-3M melanoma) [µM],TGI (MOLT-4 leukemia) [µM],TGI (NCI-H460 lung) [µM],TGI (OVCAR-5 ovarian) [µM],TGI (OVCAR-8 ovarian) [µM],TGI (SF-539 CNS) [µM],TGI (SNB-75 CNS) [µM],TGI (U251 CNS) [µM],TGI (EKVX NSCLC) [µM],TGI (UACC-257 melanoma) [µM],TGI (BT-549 breast) [µM],GI50 (BT-549 breast) [µM],GI50 (EKVX NSCLC) [µM],GI50 (LOX IMVI melanoma) [µM],GI50 (MOLT-4 leukemia) [µM],GI50 (OVCAR-5 ovarian) [µM],GI50 (SF-539 CNS) [µM]
COC1=CC(=O)NCCN1,> 100,45.2,> 100,> 100,> 100,85.9,> 100,> 100,> 100,> 100,> 100,> 100,> 100,,,,,,,
CN=C(NC)N(C)c1nc(=[N+](C)C)ss1,> 100,> 100,> 100,,> 100,> 100,> 100,> 100,> 100,,> 100,> 100,> 100,,,,,,,
C=CCN1C[C@@H](C)N([C@@H](c2ccc(C(=O)N(CC)CC)cc2)c2cccc(OC)c2)C[C@@H]1C,,> 100,> 100,> 100,> 100,,> 100,> 100,> 100,,> 100,> 100,,> 100,,,,,,
CC(=O)OC1[C@H](n2ccnc2)C[C@H]2[C@@H]3CC=C4CC(N5CCCC5)CC[C@]4(C)[C@H]3CC[C@]12C (some centres not stated),,38.1,61.6,,48.8,> 100,> 100,> 100,36.8,> 100,> 100,> 100,55.3,,,,,,,
CC(C)CC(NC(=O)C(Cc1ccccc1)NC(=O)C(Cc1ccccc1)NC(=O)OC(C)(C)C)C(=O)OCc1ccccc1 (stereo not drawn) (Boc-Phe-Phe-Leu-OBn; configuration not given here),,> 100,> 100,> 100,> 100,,> 100,> 100,> 100,> 100,> 100,> 100,> 100,> 100,,,,,,
O=c1[nH]c(=O)n2n1C1C=CC2CC1,,> 100,> 100,,> 100,> 100,> 100,> 100,> 100,> 100,> 100,> 100,> 100,> 100,,,,,,
NC(C(=O)OC(=O)c1ccccc1)C(=O)OC(=O)c1ccccc1,,> 100,> 100,> 100,> 100,> 100,> 100,> 100,> 100,> 100,> 100,> 100,> 100,> 100,,,,,,
CC(C)(SCc1ccccc1)C(N)C(=O)O (configuration not stated),,> 100,> 100,> 100,> 100,> 100,> 100,> 100,,> 100,> 100,> 100,> 100,> 100,,,,,,
COC[C@@H](N=CN1CCc2cc(OC)c(OC)cc2C1)C(C)(C)C,,,> 100,> 100,> 100,> 100,,> 100,> 100,> 100,> 100,> 100,> 100,,,,,,,
COc1ccc(-c2nc3cc(C(F)(F)F)ccc3n2CC2CCCN3CCCCC23)cc1 (configuration not stated),24.5,28.3,25.6,,28.7,29.2,62.9,30.8,30.5,28.8,30.7,24.5,26.7,,,,,,,
CCN(CC)CC(=O)Nc1ccc2c(c1)C(=O)c1ccc(NC(=O)CN(CC)CC)cc1C2=O,> 100,34.5,36.8,,81.5,31.5,> 100,94.9,30.9,89.6,47,> 100,97.4,,,,,,,
O=C1C=C2CC[C@H]3[C@@H]4CC[C@H](Oc5c6ccccc6nc6ccccc56)[C@H]4CC[C@@H]3[C@H]2CC1,,> 100,> 100,,,> 100,> 100,> 100,> 100,91.8,> 100,> 100,> 100,> 100,,,,,,
CN(C)/C=C/c1c2c(nc3ccccc13)C(=O)c1ccccc1C2=O,5.17,0.294,1.92,,6.32,1.4,8.45,7.71,5.4,,4.66,5.47,1.77,4.87,,,,,,
CC(C)(O)CCc1ccc(O)c2c(=O)c3c(O)c4c(cc3oc12)O[C@H]1OC=C[C@@]41O,< 0.0176,> 100,,,0.422,20.7,8.74,0.273,6.76,10.1,0.0396,> 61.2,0.291,> 62.5,,,,,,
Clc1cccc2c1OCC1C(c3ccccc3)=NN(c3ccccc3)C21 (configuration not stated),> 100,> 100,,> 100,> 100,> 100,> 100,> 100,,> 100,> 100,> 100,> 100,,,,,,,
CC1=C/C(=C2/N=C(N(C)C)SS2)C(C)=N1,> 100,> 100,> 100,> 100,> 100,> 100,> 100,> 100,> 100,> 100,> 100,> 100,> 100,,,,,,,
COc1ccc2c(c1)CCN1C3=C(CCC3)C(=O)C[C@@H]21,> 100,> 100,> 100,> 100,> 100,> 100,> 100,> 100,> 100,> 100,> 100,> 100,> 100,,,,,,,
Cc1ccc([N+](=O)[O-])cc1S(=O)(=O)Nc1ccc(C2=NN(S(=O)(=O)c3cc([N+](=O)[O-])ccc3C)C(c3ccco3)C2)cc1 (configuration not stated),,> 100,> 100,> 100,> 100,,> 100,> 100,> 100,> 100,,94,45.6,97.5,,,,,,
